# Laboratory results as given in patent US20080312192A1, “Diaryl Urea Derivatives in the Treatment of Protein Kinase Dependent Diseases” (priority 2003, published 2008).
# What was measured:
# [1] = target: T1, Flt-3 (Homo sapiens, UniProt P36888); assay: Flt-3 kinase inhibition (GST-Flt-3, 33P incorporation into poly(Glu,Tyr)); type: biochemical
# T1 construct: amino acids 563-993 of the cytoplasmic kinase domain of human Flt-3; made in house; host or cells: Sf9 insect cells (baculovirus, vector pFbacG01)
# T1 sequence (P36888 563-993): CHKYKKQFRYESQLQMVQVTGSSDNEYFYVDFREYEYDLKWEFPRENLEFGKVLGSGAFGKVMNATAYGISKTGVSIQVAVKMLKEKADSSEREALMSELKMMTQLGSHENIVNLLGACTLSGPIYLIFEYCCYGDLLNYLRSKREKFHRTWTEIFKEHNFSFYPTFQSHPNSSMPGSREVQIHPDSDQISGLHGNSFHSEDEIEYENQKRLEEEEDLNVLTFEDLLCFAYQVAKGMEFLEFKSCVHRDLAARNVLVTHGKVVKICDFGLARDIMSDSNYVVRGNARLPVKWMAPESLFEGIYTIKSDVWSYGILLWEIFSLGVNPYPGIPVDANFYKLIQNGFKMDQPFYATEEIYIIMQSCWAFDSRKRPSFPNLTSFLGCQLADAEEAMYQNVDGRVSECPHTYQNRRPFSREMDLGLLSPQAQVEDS
# Description: Flt-3 kinase inhibition is determined as follows: The baculovirus donor vector pFbacG01 (GIBCO) is used to generate a recombinant baculovirus expressing the amino acid region amino acids 563-993 of the cytoplasmic kinase domain of human Flt-3. The coding sequence for the cytoplasmic domain of Flt-3 is amplified by PCR from human c-DNA libraries (Clontech). The amplified DNA fragments and the pFbacG01 vector are made compatible for ligation by digestion with BamHI and HindIII. Ligation of these DNA fragments results in the baculovirus donor plasmid pFbacG01-Flt-3. The production of the viruses, the expression of proteins in Sf9 cells and the purification of the GST-fused proteins are performed as follows:
# Production of virus: The baculovirus donor plasmid (pFbacG01-Flt-3) containing the Flt-3 kinase domain is transfected into the DH10Bac cell line (GIBCO) and the transfected cells are plated on selective agar plates. Colonies without insertion of the fusion sequence into the viral genome (carried by the bacteria) are blue. Single white colonies are picked and viral DNA (bacmid) is isolated from the bacteria by standard plasmid purification procedures. Sf9 or Sf21 cells (American Type Culture Collection) are then transfected in flasks with the viral DNA using Cellfectin reagent.
# Protein expression in Sf9 cells: Virus containing media is collected from the transfected cell culture and used for infection to increase its titre. Virus containing media obtained after two rounds of infection is used for large-scale protein expression. For large-scale protein expression 100 cm^2 round tissue culture plates are seeded with 5×10^7 cells/plate and infected with 1 mL of virus-containing media (approx. 5 MOIs). After 3 days the cells are scraped off the plate and centrifuged at 500 rpm for 5 min. Cell pellets from 10-20, 100 cm^2 plates are resuspended in 50 mL of ice-cold lysis buffer (25 mM Tris-HCl, pH 7.5, 2 mM EDTA-1% NP-40. 1 mM DTT, 1 mM PMSF). The cells are stirred on ice for 15 min and then centrifuged at 5000 rpms for 20 min.
# Purification of GST-tagged protein: The centrifuged cell lysate is loaded onto a 2 mL glutathione-sepharose column (Pharmacia) and washed three times with 10 mL of 25 mM Tris-HCl, pH 7.5, 2 mM EDTA, 1 mM DTT, 200 mM NaCl. The GST-tagged protein is then eluted by 10 applications (1 mL each) of 25 mM Tris-HCl, pH 7.5, 10 mM reduced-glutathione, 100 mM NaCl, 1 mM DTT, 10% Glycerol and stored at −70° C.
# Measurement of enzyme activity: Tyrosine protein kinase assays with purified GST-Flt-3 protein are carried out in a final volume of 30 μL containing 200-1800 ng of enzyme protein (depending on the specific activity), 20 mM Tris-HCl, pH 7.6, 3 mM MnCl2, 3 mM MgCl2, 1 mM DTT, 10 μM Na3VO4, 3 μg/mL poly(Glu, Tyr) 4:1, 1% DMSO, 8.0 μM ATP and 0.1 μCi [γ^33 P] ATP. The activity is assayed in the presence or absence of inhibitors, by measuring the incorporation of ^33P from [γ^33P] ATP into the poly(Glu,Tyr) substrate. The assay (30 μL) is carried out in 96-well plates at ambient temperature for 20 min and terminated by the addition of 20 μL of 125 mM EDTA. Subsequently, 40 μL of the reaction mixture is transferred onto Immobilon-PVDF membrane (Millipore, Bedford, Mass., USA) previously soaked for 5 min with methanol, rinsed with water, then soaked for 5 min with 0.5% H3PO4 and mounted on vacuum manifold with disconnected vacuum source. After spotting all samples, vacuum is connected and each well rinsed with 200 μL 0.5% H3PO4. Membranes are removed and washed 4× on a shaker with 1.0% H3PO4, once with ethanol. Membranes are counted after drying at ambient temperature, mounting in Packard TopCount 96-well frame, and addition of 10 μL/well of Microscint™ (Packard). IC50 values are calculated by linear regression analysis of the percentage inhibition of each compound in duplicate, at four concentrations (usually 0.01, 0.1, 1 and 10 μM). One unit of protein kinase activity is defined as 1 nmole of ^33P transferred from [γ3P] […]
compound,measurement,setting,value
"CC(C)N1CCN(Cc2cc(NC(=O)Nc3ccc(Oc4cc(Cl)ncn4)cc3)cc(C(F)(F)F)c2)CC1 [Example 5, N-[4-(6-Chloro-pyrimidin-4-yloxy)-phenyl]-N′-[3-(4-isopropylpiperazin-1-ylmethyl)-5-trifluoromethyl-phenyl]-urea]",IC50,[1],0.54 µM
same,melting point,,101 °C
"CNc1cc(Oc2ccc(NC(=O)Nc3ccc(-c4cccc(C)n4)c(C(F)(F)F)c3)cc2)ncn1 [Example 64, 1-[4-(6-Methylamino-pyrimidin-4-yloxy)-phenyl]-3-[4-(6-methyl-pyridin-2-yl)-3-trifluoromethyl-phenyl]-urea]",IC50,[1],0.34 µM
same,melting point,,106 to 109 °C
CCN1CCN(Cc2ccc(NC(=O)Nc3ccc(Oc4cc(NC(=O)OC)ncn4)cc3)cc2C(F)(F)F)CC1 [Example 70],melting point,,191 to 193 °C
"CCN(CC)Cc1cc(NC(=O)Nc2ccc(Oc3cc(N)ncn3)cc2)cc(C(F)(F)F)c1 [Example 13, N-[4-(6-Amino-pyrimidin-4-yloxy)-phenyl]-N′-(3-diethylaminomethyl-5-trifluoromethyl-phenyl)-urea]",IC50,[1],0.34 µM
same,melting point,,63 to 65 °C
"CNc1cc(Oc2ccc(NC(=O)Nc3ccc(-c4cccnc4)c(C(F)(F)F)c3)cc2)ncn1 [Example 62, 1-[4-(6-Methylamino-pyrimidin-4-yloxy)-phenyl]-3-(4-pyridin-3-yl-3-trifluoromethyl-phenyl)-urea]",IC50,[1],0.16 µM
same,melting point,,118 to 123 °C
"CNc1cc(Oc2ccc(NC(=O)Nc3ccc(CN4CCNCC4)c(C(F)(F)F)c3)cc2)ncn1 [Example 19-2, N-[4-(6-Methylamino-pyrimidin-4-yloxy)-phenyl]-N′-[4-(4-H-piperazin-1-ylmethyl)-5-trifluoromethyl-phenyl]-urea]",IC50,[1],0.08 µM
same,melting point,,197 to 198 °C
"Nc1cc(Oc2ccc(NC(=O)Nc3ccc(-c4ccncc4)c(C(F)(F)F)c3)cc2)ncn1 [Example 59, 1-[4-(6-Amino-pyrimidin-4-yloxy)-phenyl]-3-(4-pyridine-4-yl-3-trifluoromethyl-phenyl)-urea]",IC50,[1],0.076 µM
same,melting point,,131 to 135 °C
"Nc1cc(Oc2ccc(NC(=O)Nc3ccc(CN4CCNCC4)c(C(F)(F)F)c3)cc2)ncn1 [Example 19-1, N-[4-(6-Amino-pyrimidin-4-yloxy)-phenyl]-N′-[4-(4-H-piperazin-1-ylmethyl)-5-trifluoromethyl-phenyl]-urea]",IC50,[1],0.038 µM
same,melting point,,153 to 155 °C
"Cc1nccn1Cc1ccc(NC(=O)Nc2ccc(Oc3cc(Cl)ncn3)cc2)cc1C(F)(F)F [Example 24, N-[4-(6-Chloro-pyrimidin-4-yloxy)-phenyl]-N′-[4-(2-methylimidazol-1-ylmethyl)-3-trifluoromethyl-phenyl]-urea]",IC50,[1],0.17 µM
same,melting point,,228 °C
"CNc1cc(Oc2ccc(NC(=O)Nc3ccc(-c4ccncc4)c(C(F)(F)F)c3)cc2)ncn1 [Example 63, 1-[4-(6-Methylamino-pyrimidin-4-yloxy)-phenyl]-3-(4-pyridin-4-yl-3-trifluoromethyl-phenyl)-urea]",IC50,[1],0.14 µM
same,melting point,,127 to 130 °C
"CN1CCN(Cc2cc(NC(=O)Nc3ccc(Oc4cc(Cl)ncn4)cc3)cc(C(F)(F)F)c2)CC1 [Example 9, N-[4-(6-Chloro-Pyrimidin-4-yloxy)-phenyl]-N′-[3-(4-methylpiperazin-1-ylmethyl)-5-trifluoromethyl-phenyl]-urea]",IC50,[1],0.32 µM
same,melting point,,291 to 292 °C
"CN(C)Cc1ccc(NC(=O)Nc2ccc(Oc3cc(Cl)ncn3)cc2)cc1C(F)(F)F [Example 20-2, N-[4-(6-Chloro-pyrimidin-4-yloxy)-phenyl]-N′-[4-(N,N-dimethylamino-methyl)-3-trifluoromethyl-phenyl]-urea]",melting point,,98 to 105 °C
"Cc1cccc(-c2ccc(NC(=O)Nc3ccc(Oc4cc(N)ncn4)cc3)cc2C(F)(F)F)n1 [Example 60, 1-[4-(6-Amino-pyrimidin-4-yloxy)-phenyl]-3-[4-(6-methyl-pyridin-2-yl)-3-trifluoromethyl-phenyl]-urea]",IC50,[1],0.16 µM
same,melting point,,130 to 133 °C
"Nc1cc(Oc2ccc(NC(=O)Nc3ccc(-c4cccnc4)c(C(F)(F)F)c3)cc2)ncn1 [Example 58, 1-[4-(6-Amino-pyrimidin-4-yloxy)-phenyl]-3-(4-pyridin-3-yl-3-trifluoromethyl-phenyl)-urea]",IC50,[1],0.12 µM
same,melting point,,132 to 135 °C
CNc1cc(Oc2ccc(NC(=O)Nc3ccc(CN(C)C(C)(C)C)c(C(F)(F)F)c3)cc2)ncn1 [Example 34a.1],IC50,[1],1.1 µM
CN(C)CCCN(C)Cc1ccc(NC(=O)Nc2ccc(Oc3cc(N)ncn3)cc2)cc1C(F)(F)F [Example 34n.3],IC50,[1],0.2 µM
"CCN1CCN(Cc2ccc(NC(=O)Nc3ccc(Oc4cc(Cl)ncn4)cc3)cc2)CC1 [Example 27, N-[4-(6-Chloro-pyrimidin-4-yloxy)-phenyl]-N′-[4-(4-ethylpiperazin-1-ylmethyl)-phenyl]-urea]",melting point,,203 to 204 °C
CCN1CCN(Cc2ccc(NC(=O)Nc3ccc(Oc4cc(N)ncn4)cc3)cc2C)CC1 [Example 34g.3],IC50,[1],0.378 µM
Cc1ncn(Cc2ccc(NC(=O)Nc3ccc(Oc4cc(N)ncn4)cc3)cc2C(F)(F)F)c1C [Example 34d.3],IC50,[1],0.29 µM
Nc1nccc(Oc2ccc(NC(=O)Nc3cc(-c4ccccn4)cc(C(F)(F)F)c3)cc2)n1 [Example 52d],IC50,[1],0.26 µM
CNc1cc(Oc2ccc(NC(=O)Nc3ccc(Cn4cnc(C)c4C)c(C(F)(F)F)c3)cc2)ncn1 [Example 34d.1],IC50,[1],0.67 µM
CCN1CCN(Cc2ccc(NC(=O)Nc3ccc(Oc4ccnc(N)n4)cc3)cc2C)CC1 [Example 51d.1],IC50,[1],0.091 µM
"O=C(Nc1ccc(Oc2cc(Cl)ncn2)cc1)Nc1cc(CN2CCC2)cc(C(F)(F)F)c1 [Example 1, N-[4-(6-Chloro-pyrimidin-4-yloxy)-phenyl]-N′-[3-(azetidin-1-ylmethyl)-5-trifluoromethyl-phenyl]-urea]",IC50,[1],0.905 µM
CNc1cc(Oc2ccc(NC(=O)Nc3ccc(Cn4ccnc4C)c(C(F)(F)F)c3)cc2)ncn1 [Example 34e.1],IC50,[1],0.16 µM
CCN1CCN(Cc2ccc(NC(=O)Nc3ccc(Oc4ccnc(NC)n4)cc3)cc2C)CC1 [Example 51d.2],IC50,[1],0.135 µM
"CN1CCN(Cc2ccc(NC(=O)Nc3ccc(Oc4cc(Cl)ncn4)cc3)cc2C(F)(F)F)CC1 [Example 14, N-[4-(6-Chloro-pyrimidin-4-yloxy)-phenyl]-N′-[4-(4-methylpiperazin-1-ylmethyl)-3-trifluoromethyl-phenyl]-urea]",IC50,[1],0.36 µM
